Drawing on ChEMBL document CHEMBL4196095, “Design and synthesis of novel pyrrolo[2,3-a]carbazoles: 7-Chloro-2-oxo-3a-(2'-oxo-2',3'-dihydro-1'H-indol-3'-yl)-2,3,3a,4,5,10-hexahydro-pyrrolo[3,2-a]carbazole-1-carbonitrile as an efficient anticancer agent” (Eur J Med Chem, 2018), this text covers IC50 for nine compounds.

One test relates to HCT-15. Nature of the test: Cytotoxicity against human HCT15 cells assessed as reduction in cell viability after 24 hrs by MTT assay. It is filed as functional, cell-based. As to conditions: HCT-15, 24 h.
Test [1] in a line: Antioxidant activity assessed as DPPH radical scavenging activity incubated under dark condition for 30 mins. It counts as functional. (Loss of DPPH colour is used to gauge radical scavenging.)

Values after ≈ are worked out from the molar mass of the structure shown.

On to `Cc1ccc2c3c([nH]c2c1)C1=C(C#N)C(=O)NC1(C1C(=O)c2cccc4cccc1c24)CC3` (configuration not stated), for which the values for the IC50 (in the test on HCT-15; in test [1]) were 31.6 µM and 28.251 µg/mL (≈ 65.8 µM), respectively.
With `Cc1ccc2[nH]c3c(c2c1)CCC1(C2c4ccccc4-c4nc5ccccc5nc42)NC(=O)C(C#N)=C31` (configuration not stated), the IC50 (usually the midpoint of a concentration-inhibition curve) in the test with HCT-15 was 35.9 µM; in test [1], 42.31 µg/mL (≈ 88.2 µM).
Consider `Cc1cccc2c3c([nH]c12)C1=C(C#N)C(=O)NC1(C1c2ccccc2-c2nc4ccccc4nc21)CC3` (configuration not stated), for which the IC50 turned out to be 23.7 µM in the test with HCT-15 and 33.936 µg/mL (≈ 70.8 µM) in test [1].
As to `Cc1ccc2[nH]c3c(c2c1)CCC1(C2C(=O)Nc4ccccc42)NC(=O)C(C#N)=C31` (configuration not stated), the values for the concentration for half-maximal inhibition (IC50) (in the test with HCT-15; in test [1]) were 47.4 µM and 41.934 µg/mL (≈ 106 µM), respectively.
For `Cc1cccc2c3c([nH]c12)C1=C(C#N)C(=O)NC1(C1C(=O)c2cccc4cccc1c24)CC3` (configuration not stated), the results for the IC50 (in the test on HCT-15; in test [1]) were 46.5 µM and above 100 µg/mL, respectively.
Taken in the same sequence, the figures for `Cc1cccc2c3c([nH]c12)C1=C(C#N)C(=O)NC1(C1C(=O)Nc2ccccc21)CC3` (configuration not stated) were 31.6 µM and 28.918 µg/mL (≈ 73.3 µM).
For `Cc1ccc2c3c([nH]c2c1)C1=C(C#N)C(=O)NC1(C1c2ccccc2-c2nc4cc(C)c(C)cc4nc21)CC3` (configuration not stated), the figures for the half-maximal inhibitory concentration (IC50) (in the test on HCT-15; in test [1]) were 50.2 µM and 40.037 µg/mL (≈ 78.9 µM), respectively.
The corresponding values for `Cc1ccc2c3c([nH]c2c1)C1=C(C#N)C(=O)NC1(C1C(=O)Nc2ccc(Cl)cc21)CC3` (configuration not stated) are 15.8 µM and 13.931 µg/mL (≈ 32.5 µM).
For `O=C1O[C@H]([C@@H](O)CO)C(O)=C1O` [ASCORBIC ACID], the half-maximal inhibitory concentration (IC50) in test [1] worked out at 13.228 µg/mL (≈ 75.1 µM).
